Data from PMC10265003 (Royal Society Open Science, 2023).
pIC50: −log10 of the molar value. Like-named read-outs stand apart in the source and are kept apart here. Positions of bridges follow the written chain, without caps; N, C: chain ends. Non-standard residues stand in square brackets, D forms with d. Residues, ends and D or L forms follow the SMILES beside them. Chains are numbered I, II in the order given. No end group written: not given here. 4Abz = Nc1ccc(C(=O)O)cc1; 2Abz = Nc1ccccc1C(=O)O; Ahx = NCCCCCC(=O)O

Assays:
[1] = RP-HPLC retention time as measure of hydrophobicity; type: physicochemical; details: Chromolith RP-18e, water/ACN with 0.05% TFA, 5-50% B from 1 to 9 min, 2 ml min^−1, 210 nm, used as measure of hydrophobicity
Procedure: The peptides were analysed using a Hitachi Primaide-DAD 1110 chromatograph and a Chromolith RP-18e High Resolution column (100 × 4.1 i.d. mm) (Merck, Darmstadt, Germany). Water containing 0.05% TFA was used as solvent A, and ACN containing 0.05% TFA was used as solvent B. The elution programme used was […] at a flow rate of 2 ml min^−1 and a wavelength of 210 nm. Ten microlitres of each peptide solution was injected at an approximate concentration of […].

MCF-7 breast cancer line [2] = type: cell-based, human; details: 2 h
Procedure: The MTT assay was performed in accordance with previous reports. Briefly, the cells were seeded with a complete medium in 96-well plates at a rate of 10 000 cells and 100 µl per well, and adhesion to the plates was allowed for 24 h. Later, the complete medium was removed, and an incomplete medium was added for synchronization for another 24 h. The cells were then incubated at 37°C for 2 h with 100 µl of peptide at the evaluated concentrations (200, 100, 50, 25, 12.5 and 6.25 µg ml^−1). Next, the peptide was removed from the well and 100 µl of incomplete medium with 10% MTT was added and incubated for 4 h. The medium was replaced with 100 µl of isopropanol, and after 30 min of incubation at 37°C, the absorbance was measured at 575 nm. As a negative control, an incomplete culture medium with 10% MTT was used, and as a positive control, cells without MTT treatment were used. The IC50 value was determined from figure 1 (peptide concentration versus per cent cell viability) using a nonlinear regression model with variable slope and GraphPad Prism 9 statistical analysis software.

pepsin = assay: Pepsin dissolved in 0.010 M HCl (pH 2.0); peptides dissolved in H2O-TFA 0.05% (v/v); details: 37°C, up to 3 h
MCF-7 breast cancer line [3] = details: cytotoxic effect against MCF-7 cells, not tested in this paper; cited from earlier work
Excerpt: Dimeric peptides derived from peptide ^26[F]: (RRWQWRFKKLG)2-K-Ahx were synthesized and characterized. The analogues with the highest synthetic viability in terms of purity and yield were ^26[1-Nal] and ^26[hF].

[4] = system: MDA-MB-468 breast cancer cell line; details: cytotoxic effect; cited from earlier work
Excerpt: (§1) Solid-phase peptide synthesis has allowed chemical and structural modifications to be made to ACPs in order to enhance their activity and increase their resistance to proteolytic degradation.

[5] = system: MDA-MB-231 breast cancer cell line; details: cytotoxic effect; cited from earlier work
Excerpt: as §1

[6] = system: human breast cancer lines MDA-MB-468 and MDA-MB-231; details: 4 mg via intra-tumoural route, cited from earlier work
Procedure: Mice treated with peptide ^26[F] recovered completely after 24 h, and the survival rate was 100% after one week of observation. […] Peptide ^26[F] was inoculated in female mic ...

CC(C)C[C@H](NC(=O)[C@H](CCCCN)NC(=O)[C@H](CCCCN)NC(=O)c1ccccc1NC(=O)[C@H](Cc1c[nH]c2ccccc12)NC(=O)[C@H](CCC(N)=O)NC(=O)[C@H](Cc1c[nH]c2ccccc12)NC(=O)[C@H](CCCNC(=N)N)NC(=O)[C@@H](N)CCCNC(=N)N)C(=O)NCC(=O)NCCCC[C@H](NC(=O)CNC(=O)[C@H](CC(C)C)NC(=O)[C@H](CCCCN)NC(=O)[C@H](CCCCN)NC(=O)c1ccccc1NC(=O)[C@H](Cc1c[nH]c2ccccc12)NC(=O)[C@H](CCC(N)=O)NC(=O)[C@H](Cc1c[nH]c2ccccc12)NC(=O)[C@H](CCCNC(=N)N)NC(=O)[C@@H](N)CCCNC(=N)N)C(=O)NCCCCCC(N)=O [^26[2-Abz], (RRWQWR-2-Abz-KKLG)2-K-Ahx] (I: H-RRWQW[2Abz]KKLGK[Ahx]-NH2 / II: H-RRWQW[2Abz]KKLG; amide I:11-II:C; N-terminus assumed)
tR [1]: 5.9 min

CC(C)C[C@H](NC(=O)[C@H](CCCCN)NC(=O)[C@H](CCCCN)NC(=O)c1ccc(NC(=O)[C@H](Cc2c[nH]c3ccccc23)NC(=O)[C@H](CCC(N)=O)NC(=O)[C@H](Cc2c[nH]c3ccccc23)NC(=O)[C@H](CCCNC(=N)N)NC(=O)[C@@H](N)CCCNC(=N)N)cc1)C(=O)NCC(=O)NCCCC[C@H](NC(=O)CNC(=O)[C@H](CC(C)C)NC(=O)[C@H](CCCCN)NC(=O)[C@H](CCCCN)NC(=O)c1ccc(NC(=O)[C@H](Cc2c[nH]c3ccccc23)NC(=O)[C@H](CCC(N)=O)NC(=O)[C@H](Cc2c[nH]c3ccccc23)NC(=O)[C@H](CCCNC(=N)N)NC(=O)[C@@H](N)CCCNC(=N)N)cc1)C(=O)NCCCCCC(N)=O [^26[4-Abz], (RRWQWR-4-Abz-KKLG)2-K-Ahx] (I: H-RRWQW[4Abz]KKLGK[Ahx]-NH2 / II: H-RRWQW[4Abz]KKLG; amide I:11-II:C; N-terminus assumed)
tR [1]: 5.9 min
pIC50 (MCF-7 breast cancer line [2]): 4.31

(RRWQWR-1-Nal-KKLG)2-K-Ahx
not cleaved (pepsin): pepsin treatment for 3 h did not induce proteolytic degradation

(RRWQWR-hF-KKLG)2-K-Ahx
not cleaved (pepsin): pepsin treatment for 3 h did not induce proteolytic degradation

(^20RRWQWRMKKLG^30)2-K-Ahx [LfcinB (20–30)2]
pIC50 (MCF-7 breast cancer line [3]): ≤ 4.22
pIC50 [4]: 5.30
pIC50 [5]: 4.85

Bovine lactoferricin (FKCRRWQWRMKKLGAPSITCVRRAF; ends and bridges not checked; cysteine pairing not given here; UniProt P24627 36-60, looked up) [LfcinB, 25-amino acid ACP generated by gastric pepsin digestion of bovine lactoferrin]
safety on administration ([6]; NOD-SCI-gamma mice): safe
anti-tumoural effect ([6]; xenografts of MDA-MB-468 and MDA-MB-231 in NOD-SCI-gamma mice): had anti-tumoural effect
